In patent US10023591B2, “Heterocyclic derivatives and use thereof” (C&C RESEARCH LABORATORIES, priority 2014, dated 2018) one finds IC50 data, which are given here for 15 compounds.

Where two headings read alike, the source gives them in different places.

Experiment [1] deals with STAT3. In words: STAT3 reporter gene assay (luciferase), LNCaP stable cell line pSTAT3-TA-luc, IL-6 stimulation. Format: cell-based, human. The procedure:
1-1) Experiment on the Inhibition of STAT3 Activity
A human prostate cancer cell line (LNCaP stable cell line; plasmid pSTAT3-TA-luc), which contains a stably operating STAT3 promoter, was cultured in RPMI1640 medium (Cat No. 11875, Life Technologies) containing 10% fetal bovine serum (FBS) (Cat No. SH30396, Thermo Scientific) and 150 μg/mL G-418 solution (Cat No. 04 727 894 001, Roche). The reporter gene assay using LNCaP stable cell line was performed in RPMI1640 medium containing 3% DCC-FBS without G-418 solution. LNCaP stable cells were plated in two (2) white 96-well plates with 30,000 cells/50 μL in each well. The cells were cultured at 37° C., under 5% CO2 for 24 hours, and then treated with the compounds listed in Examples which were diluted in various concentrations. Subsequently, IL-6 was added to each well with a final concentration of 10 ng/mL. Upon completion of the treatment with the compounds and IL-6, the cells were cultured at 37° C., under 5% CO2 for 24 hours. The plates were observed under microscope and drug precipitation and particular findings were investigated and recorded.
(§1) The luciferase assay and the cell viability assay were performed respectively with one of the two plates. For the luciferase assay, the liquid media in the 96-well plate was removed, and then, 20 μL, of passive cell lysis buffer was added to each well. After shaking the plate for 30 minutes, luciferase activities of each well were measured in a PHERAstar™ microplate reader (BMG LABTECH) using a luciferase assay system (Cat No. E1501, Promega). For the cell viability assay, the 96-well plate was placed at room temperature for 30 minutes, added with 20 μL/well of CellTiter-Glo solution (Cat No. G7573, Promega), and shaken for 10 minutes in order to measure cytotoxicity caused by the compounds listed in Examples with a PHERAstar™ microplate reader (BMG LABTECH). Wells without 0.1% DMSO and stimulation were used as a negative control and wells with 0.1% DMSO and stimulation were used as a positive control.
(§2) The results of evaluation on the inhibitory effect of the compounds listed in the Examples on the dimerization of STAT3 and STAT1 obtained via the STAT3 and STAT1 reporter gene assays are shown in Table 9 below.
(In a reporter assay the amount or activity of a reporter protein is the signal.)

Experiment [2] has as its system STAT1. In words: STAT1 reporter gene assay (luciferase), U2OS stable cell line pGL4-STAT1-TA-luc, IFN-γ stimulation. Format: cell-based, human. The following applies: IFN-γ 50 ng/mL, 8 hours, read-out: IC50 (μM) pSTAT1. The procedure: 1-2) Experiment on the Inhibition of STAT1 Activity
A human osteosarcoma cell line (U2OS stable cell line; pGL4-STAT1-TA-luc), which contains a stably operating STAT1 promoter, was cultured in McCoy 5′A medium (Cat No. 16600, Life Technologies) containing 10% FBS (Cat No. SH30396, Thermo Scientific) and 1000 μg/mL G418 solution (Cat No. 04 727 894 001, Roche). The reporter gene assay using U2OS stable cell line was performed in McCoy 5′A medium containing 10% FBS without G-418 solution. U2OS stable cells were plated in two (2) white 96-well plates with 25,000 cells/50 pt in each well. The cells were cultured at 37° C., under 5% CO2 for 24 hours, and then treated with the compounds listed in Examples which were diluted in various concentrations. Subsequently, IFN-γ was added to each well with a final concentration of 50 ng/mL. Upon completion of the treatment with the compounds and IFN-γ, the cells were cultured at 37° C., under 5% CO2 for 8 hours. The plates were observed under microscope and drug precipitation and particular findings were investigated and recorded.
as §1, with “of” for “of the”, “μL” for “μL,”
as §2

Experiment [3] has as its system NCI-N87 stomach cancer cell line. In words: Cell growth inhibition assay, NCI-N87 (CellTiter-Glo). Format: cell-based. Particulars: Homo sapiens; NCI-N87, 5,000 cells/well, 96 hours. The procedure:
The inhibitory effects of the compounds of the present invention against the growth of cancer cells were evaluated as shown below. The cancer cell lines including prostate cancer cell lines (LNCaP, DU-145), stomach cancer cell line (NCI-N87), and breast cancer cell lines (MDA-MB-468) were cultured under the protocol provided by each supplier. A medium supplemented with 10 ng/mL of IL-6 was used for LNCaP, a prostate cancer cell line, when treated with a drug. Each type of cells to be used in experiments was sub-cultured in a 96-well plate by counting the exact number of cells using Tali™ Image-based Cytometer (Life Technologies). In a 96-well plate, DU-145 was employed with 3,000 cells/well; NCI-N87 was employed with 5,000 cells/well; and LNCaP and MDA-MB-468 were employed with 10,000 cells/well. The cells were treated with the compounds listed in Examples which were diluted in various concentrations. Upon completion of the compounds treatment, LNCaP, DU-145, NCI-N87 cells were cultured at 37° C. under 5% CO2 for 96 hours, and MDA-MB-468 cells were cultured at 37° C. in air for 96 hours. Subsequently, the cells were observed under microscope and drug precipitation and particular findings were investigated and recorded. And then, the 96-well plate was placed at room temperature for 30 minutes, added with 20 pt/well of CellTiter-Glo solution (Cat No. G7573, Promega) and shaken for 10 minutes, followed by being subjected to the measurement using PHERAstar™ microplate reader (BMG LABTECH) according to the supplier's general luminometer protocol. Wells where only culture liquid added without cell plating were used as a negative control, whereas wells where culture liquid containing 0.1% DMSO instead of the compounds listed in Examples were used as a positive control.

Broadly, the IC50 is the concentration at which inhibition is half-maximal. Regarding `CC(C)(c1ccc(Cl)cc1)c1cc(Cl)cc(NC(=O)c2cc3cc(CS(C)(=N)=O)ccc3s2)c1` (stereo not shown) [Example 36, N-(3-chloro-5-(2-(4-chlorophenyl)propan-2-yl)phenyl)-5-((S-methylsulfonimidoyl)methyl)benzo[b]thiophene-2-carboxamide], the IC50 in experiment [1] (Homo sapiens) stood at 0.064 µM; in experiment [2] (Homo sapiens), 42.1 µM; in experiment [3], 0.25 µM.

`CC(C)(c1ccc2sc(C(=O)Nc3cc(Cl)nc(N4CCN5CCCC5C4)c3)cc2c1)S(C)(=O)=O` (stereo not shown) [Example 104, N-(2-chloro-6-(hexahydropyrrolo[1,2-a]pyrazin-2(1H)-yl)pyridin-4-yl)-5-(2-(methylsulfonyl)propan-2-yl)benzo[b]thiophene-2-carboxamide]: the IC50 in experiment [1] (Homo sapiens) came out at 1.4 µM; in experiment [2] (Homo sapiens), 8.7 µM; in experiment [3] it was 1.7 µM.

As to `Cn1cccc1C(C)(C)c1cc(Cl)cc(NC(=O)c2cc3cc(C(C)(C)S(C)(=O)=O)ccc3s2)c1` [Example 31, N-(3-chloro-5-(2-(1-methyl-1H-pyrrol-2-yl)propan-2-yl)phenyl)-5-(2-(methylsulfonyl)propan-2-yl)benzo[b]thiophene-2-carboxamide], the results for the IC50 in experiment [1] (Homo sapiens), in experiment [2] (Homo sapiens) and in experiment [3] were 0.0025 µM, > 50 µM and 0.24 µM, respectively.

`CC(C)(c1ccc2sc(C(=O)Nc3cc(Cl)nc(N4CCN5CCCCC5C4)c3)cc2c1)S(C)(=O)=O` (stereo not shown) [Example 106, N-(2-chloro-6-(octahydro-2H-pyrido[1,2-a]pyrazin-2-yl)pyridin-4-yl)-5-(2-(methylsulfonyl)propan-2-yl)benzo[b]thiophene-2-carboxamide]: the IC50 in experiment [1] (Homo sapiens) came out at 0.43 µM; in experiment [2] (Homo sapiens), 8.5 µM; in experiment [3] it was 1.8 µM.

Consider `CC(C)(c1cc2cc(C(=O)Nc3cc(Cl)cc(Oc4ccc(Cl)cc4)c3)sc2cn1)S(C)(=O)=O` [Example 50, N-(3-chloro-5-(4-chlorophenoxy)phenyl)-5-(2-(methylsulfonyl)propan-2-yl)thieno[2,3-c]pyridine-2-carboxamide], for which the IC50 in experiment [1] (Homo sapiens) was 0.078 µM; in experiment [2] (Homo sapiens), > 50 µM.

Turning to `CC(C)(c1ccc2sc(C(=O)Nc3cc(Cl)nc(Oc4ccc(Cl)cc4)n3)cc2c1)S(C)(=O)=O` [Example 76, N-(6-chloro-2-(4-chlorophenoxy)pyrimidin-4-yl)-5-(2-(methylsulfonyl)propan-2-yl)benzo[b]thiophene-2-carboxamide], the results for the IC50 in experiment [1] (Homo sapiens) and in experiment [2] (Homo sapiens) were 0.39 µM and 3.1 µM, respectively.

Take `CC(C)(c1ccc(F)cc1)c1cc(Br)cc(NC(=O)c2cc3cc(C(C)(C)S(C)(=O)=O)ccc3s2)c1` [Example 20, N-(3-bromo-5-(2-(4-fluorophenyl)propan-2-yl)phenyl)-5-(2-(methylsulfonyl)propan-2-yl)benzo[b]thiophene-2-carboxamide]: the IC50 in experiment [1] (Homo sapiens) is 0.067 µM; in experiment [2] (Homo sapiens), > 50 µM.

For `CC(C)(c1ccc(Cl)cc1)c1cc(Cl)cc(NC(=O)c2cc3ccc(C(C)(C)S(C)(=O)=O)cc3[nH]2)c1` [Example 35, N-(3-chloro-5-(2-(4-chlorophenyl)propan-2-yl)phenyl)-6-(2-(methylsulfonyl)propan-2-yl)-1H-indole-2-carboxamide], the figures for the IC50 in experiment [1] (Homo sapiens) and in experiment [2] (Homo sapiens) were 0.1 µM and > 50 µM, respectively.

“N-(3-chloro-5-(2-(3-chloro-5-methoxyphenyl)propan-2-yl)phenyl)-5-(2-(methylsulfonyl)propan-2-yl)benzo[b]thiophene-2-carboxamide [Example 55]”: the values for the IC50 in experiment [1] and in experiment [2] were 0.0022 µM and > 50 µM, respectively.

With `COc1cc(OC(F)(F)F)cc(C(C)(C)c2cc(Cl)cc(NC(=O)c3cc4cc(C(C)(C)S(C)(=O)=O)ccc4s3)c2)c1` [Example 7, N-(3-chloro-5-(2-(3-methoxy-5-(trifluoromethoxy)phenyl)propan-2-yl)phenyl)-5-(2-(methylsulfonyl)propan-2-yl)benzo[b]thiophene-2-carboxamide], the IC50 in experiment [1] (Homo sapiens) is 0.0088 µM; in experiment [2] (Homo sapiens) it was > 50 µM.

As to `CC(C)(c1ccc2sc(C(=O)Nc3cc(Oc4ccc(Cl)cc4)cc(N4CCC4)c3)cc2c1)S(C)(=O)=O` [Example 59, N-(3-(azetidin-1-yl)-5-(4-chlorophenoxy)phenyl)-5-(2-(methylsulfonyl)propan-2-yl)benzo[b]thiophene-2-carboxamide], the values for the IC50 in experiment [1] (Homo sapiens) and in experiment [2] (Homo sapiens) were 0.31 µM and > 50 µM, respectively.

For `CCOc1cc(OC(F)(F)F)cc(C(C)(C)c2cc(Cl)cc(NC(=O)c3cc4cc(C(C)(C)S(C)(=O)=O)ccc4s3)c2)c1` [Example 1, N-(3-chloro-5-(2-(3-ethoxy-5-(trifluoromethoxy)phenyl)propan-2-yl)phenyl)-5-(2-(methylsulfonyl)propan-2-yl)benzo[b]thiophene-2-carboxamide], the IC50 was 0.0076 µM in experiment [1] (Homo sapiens) and > 50 µM in experiment [2] (Homo sapiens).

Consider `COc1ccc(C(C)(C)c2cc(Cl)cc(NC(=O)c3cc4cc(C(C)(C)S(C)(=O)=O)ccc4s3)c2)s1` [Example 29, N-(3-chloro-5-(2-(5-methoxythiophen-2-yl)propan-2-yl)phenyl)-5-(2-(methylsulfonyl)propan-2-yl)benzo[b]thiophene-2-carboxamide], for which the values for the IC50 in experiment [1] (Homo sapiens) and in experiment [2] (Homo sapiens) were 0.0041 µM and > 50 µM, respectively.

For the compound `COc1cc(OC(F)(F)F)cc(C(C)(C)c2cc(Cl)cc(NC(=O)c3cc4cc(C(C)(C)S(C)(=O)=O)ccc4s3)n2)c1` [Example 91, N-(4-chloro-6-(2-(3-methoxy-5-(trifluoromethoxy)phenyl)propan-2-yl)pyridin-2-yl)-5-(2-(methylsulfonyl)propan-2-yl)benzo[b]thiophene-2-carboxamide], the 50% inhibitory concentration (IC50) in experiment [1] (Homo sapiens) was 0.0051 µM; in experiment [2] (Homo sapiens) it was > 50 µM.

In the case of `CC(C)(c1ccc2sc(C(=O)Nc3cc(Cl)nc(Oc4ccc(Cl)nc4)c3)cc2c1)S(C)(=O)=O` [Example 65, N-(2-chloro-6-((6-chloropyridin-3-yl)oxy)pyridin-4-yl)-5-(2-(methylsulfonyl)propan-2-yl)benzo[b]thiophene-2-carboxamide], the half-maximal inhibitory concentration (IC50) in experiment [1] (Homo sapiens) is 0.079 µM; in experiment [2] (Homo sapiens), > 50 µM.
